In US20220183287A1, “METHODS FOR KILLING PESTS” (The United States of America, as represented by the …, priority 2020, published 2022):
Where two headings read alike, the source gives them in different places. Marks after values point to notes of the source that are not given here.

Assays:
Heterodera glycines eggs = assay: Microwell assay: eggs immersed in compounds, hatch and activity of hatched J2; format: in vivo; settings: for % Active Day 2 / % Active Day 5 / % Active Day 7: J2 hatched from immersed eggs; for inactive J2 that hatched from the eggs: by Day 7; for Hatch Day 2 / Hatch Day 5 / Hatch Day 7: hatched J2 per well, about 35 eggs per well; for pest or weed control at 0.1 %: Heterodera glycines, 168 h, read-out: egg hatch suppression compared with the Tween control
Procedure: All chemicals were used without further purification.
These are reported as 0.1% herein.
The nematodes were then incubated at 26° C. […] Two trials were conducted for each assay.
The assumptions of the model were checked.

[1] = system: cucumber (Cucumis sativus) plants; assay: Greenhouse trial: cucumber plant vigor in treated soil; settings: for Root weight Trials 1 & 2: 27-28 ml per 300 grams soil; for Shoot fresh weight Trial 1 / Shoot height Trial 1: 27 ml per 300 grams soil; for Shoot fresh weight Trial 2 / Shoot height Trial 2: 28 ml per 300 grams soil
Procedure: Greenhouse trials: Selected compounds and combinations were tested for effects on plant growth and on numbers of galls produced by M. incognita infecting cucumber (Cucumis sativus) plants in pots. Cucumber “Sweet Slice” seeds were planted in ProMix in 6-pack cell trays. Treatments were mixed into loamy sand at 27 ml (Trial 1) and 28 ml (Trial 2) per 300 grams soil. Meloidogyne incognita eggs were mixed into soil for a final inoculum of 5,000 per pot. Each pot received 300 grams soil per treatment, with 4 replicates per treatment in each of two trials. Pots were covered with black plastic and periodically watered to keep the soil moist. Two weeks later, one 14-day old cucumber seedling was transplanted into each pot. Two weeks after transplant, the plants were harvested. Root and shoot measurements were recorded and root galls were counted.
(§1) Statistical analyses: The data were analyzed as either a general linear model using JMP or a generalized linear model for the best distribution to fit the residual using Proc Glimmix (Sas Institute). The assumptions of the model were checked. If not met, then appropriate statistical techniques were used so that data could met the assumptions of the models. In Sas, mean comparisons were done with Sidak adjusted p-values to hold the experiment-wise error at 0.05. As indicated in the footnote to Table 5, an analysis from greenhouse trials was conducted with JMP using a Wilcoxon test with each pair nonparametric multiple comparisons (P≤0.05).
Table 5 legend: a) treatments were added at a rate of 27 ml (Trial 1) and 28 ml (Trial 2) per 300 grams soil. Four replicate pots, each containing 300 grams soil, were used per treatment in each trial. Meloidogyne incognita was mixed into soil for a final inoculum of 5,000 eggs per pot. Two weeks after soil treatment, one 14-day old cucumber seedling was transplanted into each pot. […] Untransformed data are presented to show actual numbers on roots; e) compounds differ from each other in number of carbons of aliphatic ester moiety. The number of carbons is indicated in parentheses.

[2] = system: H. glycines second-stage juveniles; assay: Microwell assay: previously hatched J2 immersed in compounds, activity and viability; settings: for viability reduction compared with the Tween control: following the water rinse (Day 3); for inactive J2: Day 1 and Day 2; for reduction in % viable J2 compared with the Tween control: Day 3 following water rinse
Procedure: The isolate of H. glycines race 3, originally isolated in Maryland, was maintained on soybean (Glycine max cv. ‘Essex’). As previously described (Wen, Y., et al. Plant Disease, 103: 2191-2198 (2019)), the roots were gently rubbed in water to dislodge cysts and mature females. The egg suspensions were then poured through nested sieves (#20 over /#60; pore sizes 850 μm and 250 μm diam., respectively) into a 454 g/liter sucrose solution. After 15 min, the cysts and females and cysts that floated to the top were collected, rinsed in water, and crushed with a rubber stopper on a #60 sieve (250-μm diam. pore size) that was partially submerged in distilled water. The egg suspension was washed through nested #230 over #500 sieves (pore sizes 63 μm and 25-μm diam., respectively). The eggs were collected in distilled water, and J2 hatched as described above.
Compounds for the studies were purchased from three different companies: methyl benzoate, CAS Number 93-58-3, ≥99% purity; Tween 20, CAS Number: 9005-64-5; Tween 80, CAS Number: 9005-65-6; ethyl benzoate, CAS Number: 93-89-0, natural, ≥99% purity, FCC, FG; vinyl benzoate, CAS Number: 769-78-8, ≥99% purity; n-propyl benzoate, CAS Number: 2315-68-6, 99% purity; n-butyl benzoate, CAS Number: 136-60-7, 99% purity; benzyl benzoate, CAS Number: 120-51-4, natural, ≥99% purity, FCC, FG; methyl 2-methylbenzoate, CAS Number: 89-71-4, 99% purity; methyl 2-chlorobenzoate, CAS Number: 610-96-8, ≥98% purity; methyl 2-methoxybenzoate, CAS Number: 606-45-1, 99% purity and methyl 2-nitrobenzoate, CAS Number: 606-27-9, 98% purity were purchased from Sigma-Aldrich (St. Louis, Mo.). Compounds, iso-butyl benzoate, CAS Number 120-50-3, >98% purity; n-pentyl benzoate, CAS Number: 2049-96-9, ≥98% purity; and n-hexyl benzoate, CAS Number: 6789-88-4, ≥98% purity were purchased from Alfa Aesar (Tewksbury, Mass.). The compounds methyl 3-methoxybenzoate (methyl m-anisate), CAS Number: 5368-81-0; 97% and methyl 3-methylbenzoate (methyl m-toluate), CAS Number: 99-36-5, 97% purity were purchased from TCI America (Portland, Oreg.). All chemicals were used without further purification. Deionized water (DI) containing 1% emulsifier (v/v), Tween 20 and Tween 80, at 1:1 ratio was used to make different VOCs (volatile organic compounds) water solutions and also used as blank control.
For tests with individual compounds, the concentration of each compound was 0.1% before placement into wells; the final concentration in the wells was 0.095% after addition to eggs or J2 suspended in water. These are reported as 0.1% herein. An exception was Trial 2, M. incognita J2 activity and viability (Table 2): the final concentration was 0.1% after placement in wells. Low concentrations were selected for assays of combined compounds to determine if the combinations would increase nematotoxicity.
Laboratory assays were conducted in 96-well polystyrene plates following general procedures described in Wen et al. (2019). Each well received approximately 35 J2 (for previously hatched J2 assays) or 35 eggs that each contained either a first-stage juvenile (J1) or a J2. The plates were covered with plastic adhesive sealing film (Excel Scientific, Inc., Victorville Calif.) and then with the plate lids. Parafilm (Bemis, Neenah, Wis.) was used to seal the plates. The nematodes were then incubated at 26° C. […] Following the counts on Day 2, the treatments were removed and the J2 rinsed twice with SDW and incubated in the second rinse. […] Two trials were conducted for each assay.
as §1, with “0.05.” for “0.05. As indicated in the footnote to Table 5, an analysis from greenhouse trials was conducted with JMP using a Wilcoxon test with each pair nonparametric multiple comparisons (P≤0.05).”

[3] = 0.1%, previously hatched J2 in aqueous solution
[4] = Heterodera glycines, 72 h, read-out: % Viable Day 3 rinsed

Row | SMILES | % Active Day 2 (Heterodera glycines eggs; 0.1%) | % Active Day 5 (Heterodera glycines eggs; 0.1%) | % Active Day 7 (Heterodera glycines eggs; 0.1%) | inactive J2 that hatched from the eggs (Heterodera glycines eggs; 0.1%) | Hatch Day 2 (Heterodera glycines eggs; 0.1%) | Hatch Day 5 (Heterodera glycines eggs; 0.1%) | Hatch Day 7 (Heterodera glycines eggs; 0.1%) | Root weight Trials 1 & 2 ([1]; 0.05%) | Shoot fresh weight Trial 1 ([1]; 0.05%) | Shoot height Trial 1 ([1]; 0.05%) | Shoot fresh weight Trial 2 ([1]; 0.05%) | Shoot height Trial 2 ([1]; 0.05%) | Root weight Trials 1 & 2 ([1]; 0.1%) | Shoot fresh weight Trial 1 ([1]; 0.1%) | Shoot height Trial 1 ([1]; 0.1%) | Shoot fresh weight Trial 2 ([1]; 0.1%) | Shoot height Trial 2 ([1]; 0.1%) | % Active Day 1 [2, 3] | % Active Day 2 [2, 3] | viability at 0.1 % [2, 4] [%] | also measured
1 | COC(=O)c1ccccc1 [MB, Methyl benzoate] | 0 ^e % | 0 ^f % | 0 ^d % | all J2 that hatched from the eggs were inactive | 5.4 ^cd | 5.6 ^cd | 5.5 ^cd | 3.0 ^ab g | 3.2 ^a g | 7.7 ^ab cm | 3.9 ^ab g | 8.0 ^a cm | 2.9 ^ab g | 3.0 ^a g | 7.2 ^ab cm | 4.0 ^ab g | 8.3 ^a cm | 0 ^e % | 0 ^h % | 0 | pest or weed control at 0.1 % (Heterodera glycines eggs): 64 to 80%; % Active Day 1 ([2]; 0.0095% final concentration): 49.7 ^bc %; % Active Day 2 ([2]; 0.0095% final concentration): 27.9 ^bc %; viability reduction compared with the Tween control ([2]; 0.0095%): 32%; inactive J2 ([2]; 0.1%): 100%; reduction in % viable J2 compared with the Tween control ([2]; 0.1%): 100%; viability at 0.0095 % [2, 4]: 43.8%
2 | CCOC(=O)c1ccccc1 [EB, Ethyl benzoate] | 0 ^e % | 0 ^f % | 0 ^d % | all J2 that hatched from the eggs were inactive | 6.7 ^bcd | 6.8 ^bcd | 6.6 ^bcd | 3.2 ^ab g | 2.8 ^a g | 7.1 ^ab cm | 4.7 ^a g | 7.5 ^a cm | 3.1 ^ab g | 3.0 ^a g | 6.4 ^b cm | 4.0 ^ab g | 8.1 ^a cm | 2.7 ^e % | 1.8 ^g % | 4.4 | % Active Day 1 ([2]; 0.025% final concentration): 73.9 ^a %; viability at 0.025 % [2, 4]: 52.8%
3 | COC(=O)c1cccc(C)c1 [M3MB, Methyl 3-methylbenzoate] | 0 ^e % | 0 ^f % | 0 ^d % | all J2 that hatched from the eggs were inactive | 5.2 ^cd | 5.4 ^cd | 5.1 ^cd | 3.3 ^a g | 3.3 ^a g | 6.8 ^ab cm | 4.3 ^ab g | 7.9 ^a cm | – | 3.2 ^a g | 6.9 ^ab cm | 3.6 ^ab g | 7.2 ^a cm | 10.1 ^d % | 7.6 ^g % | 8.5 | pest or weed control at 0.1 % (Heterodera glycines eggs; 0.1%, Day 7): 64 to 80%; % Active Day 1 ([2]; 0.015% final concentration): 71.9 ^a %; viability at 0.015 % [2, 4]: 58.7%
4 | C=COC(=O)c1ccccc1 [VB, Vinyl benzoate] | 0 ^e % | 0 ^f % | 1 ^d % | all J2 that hatched from the eggs were inactive | 3.5 ^d | 3.5 ^d | 3.4 ^d | 3.1 ^ab g | 3.2 ^a g | 6.7 ^ab cm | 4.3 ^ab g | 8.3 ^a cm | – | 3.0 ^a g | 7.2 ^ab cm | 3.1 ^b g | 6.8 ^a cm | 0 ^e % | 0 ^h % | 0 | hatch suppression compared to the Tween control (Heterodera glycines eggs; 0.1%, Day 2): 76%; pest or weed control at 0.1 % (Heterodera glycines eggs; 0.1%, Day 7): 80%; % Active Day 1 ([2]; 0.008% final concentration): 42.8 ^bc %; % Active Day 2 ([2]; 0.008% final concentration): 34.7 ^b %; viability reduction compared with the Tween control ([2]; 0.008%): 30%; inactive J2 ([2]; 0.1%): 100%; reduction in % viable J2 compared with the Tween control ([2]; 0.1%): 100%; viability at 0.008 % [2, 4]: 45%
